In patent US20240109917A1 (ACTELION PHARMACEUTICALS LTD, priority 2020, published 2024):
pIC50: −log10 of the molar value.

How the values were obtained:
[1] = target: His6-TEV-PDGFRβ (557-1016) (Homo sapiens (Human), UniProt P09619); assay: PDGFRβ HTRF Assay; type: biochemical; conditions: read-out: PDGFR HTRF IC50
Description: Instrumentation: a. Compound liquid handling: LabCyte Echo; b. Reagent liquid handling: Thermo Scientific Multidrop Combi; c. BMG PHERAStar multilabel plate reader.
Protein Reagent: His6-TEV-PDGFRβ Protein Prep prepared at Accelagen.
(§1) II. Methods and Procedures
Assay buffer stock solution, contains 50 mM Hepes, 10 mM MgCl2, 1 mM EGTA, and 0.01% Brij-35, 0.01% ovalbumin, 2 mM DTT at pH 7.5, in molecular biology grade water. Store at room temperature.
DTT, 2 M in molecular biology grade water, store at −20° C. in aliquots.
Ovalbumin, 10% or 100 mg/mL, prepare fresh on experimental day.
PDGFRβ, 116 μM (PDGFRb_08 Prep 02), produced at Accelagen. Store at −80° C. in aliquots.
TK-biotin peptide, […] in molecular biology grade water, store at −20° C. in aliquots.
ATP, 100 mM in molecular biology grade water, store at −20° C. in aliquots.
HTRF KinEASE-TK kit: Allow the contents of the Cisbio kit to warm up to room temperature before use. This kit contains HTRF detection buffer, TK-Antibody labeled with Eu^3+-cryptate, TK-substrate biotin and Streptavidin-XL665.
TK Substrate-Biotin, reconstitute 500 μg lyopholized with 574 μL molecular biology grade water to prepare a 500 μM stock; After use, aliquot the rest and store at −20° C.
TK Antibody-Cryptate, reconstitute lyophilized with 1 mL of molecular biology grade water (100× solution) then add 99 mL detection buffer to prepare a ready to use TK-antibody-cryptate solution; the concentration of the TK-antibody-cryptate reagent is not known. After use, aliquot the rest and store at −20° C.
Streptavidin-XL665, reconstitute 3 mg lyophilized with 3 mL molecular biology grade water to prepare a 1 mg/mL or 16.67 μM stock; MW=60 kDa; After use, aliquot the rest and store at −20° C.
Freshly Prepared Solutions:
Assay buffer. Dilute 5× Kinase buffer 5-fold with molecular biology grade water and add DTT to 2 mM and ovalbumin to 0.1 mg/mL (or 0.01%).
2× protein solution. Make a working solution of […] PDGFRβ in assay buffer. Keep on ice until use to maintain enzyme stability.
2× substrate solution. Make a working solution of 1.6 mM ATP and 1 μM TK-substrate biotin peptide in assay buffer.
3× quench/detection solution. Make a working solution of 0.1875 μM SA-XL665 and the TK-antibody cryptate diluted by 12 of total quench/detection volume in assay buffer.
Keep final streptavidin/biotin ratio at 1 to 8.
Example of 3× quench/detection solution preparation: 8 mL total volume.
TK antibody-cryptate in detection buffer—4000 μL
The kinase reaction is stopped by the addition of the detection reagents which contain EDTA (detection step).
Assay in white ProxiPlate 384-well
Step 1. Dispensing inhibitors/DMSO and low control: Using the ECHO 555 acoustic dispenser, spot desired compound serial dilutions in DMSO, NEAT DMSO to represent the uninhibited enzyme control, and 10 μM final [imatinib] to the represent the 100% inhibited enzyme control
Step 2. PDGFRβ E+I pre-incubation: Add 2 μL 2× protein solution to columns 1-24 using the Multidrop Combi. Centrifuge at 1000 rpm for 1 min. Incubate 30 min at RT
Step 2. Enzymatic reaction: Add 2 μL substrate solution to columns 1-24 to initiate the reaction using the Multidrop Combi; cover/seal the assay plate to reduce evaporation. Centrifuge at 1000 rpm for 1 min. Incubate at room temperature for 3 hours.
Step 3. Quench/Detection: Add 2 μl 3× quench/detection solution to columns 1-24 using the Multidrop Combi; cover/seal the plate. Centrifuge 1 min 1000 rpm. Incubate at RT for 60 min. Read the plate in PHERAstar (or similar instrument) on HTRF setting at excitation 337 nm—dual emission—665/620 nm ratio.
(§2) III. Calculations and Formulas
HTRF ratio values calculated by the instrument (Ratio is acceptor counts/donor counts*10,000) is exported from the plate reader and used in data analysis. […] Assay statistics can include Robust Z′ and Signal to Background.
% Inhibition Calculation: Percent inhibition will be calculated for sample wells based on the equation: […]

[2] = target: Tb-labeled inactive PDGFRβ (Homo sapiens (Human), UniProt P09619); assay: PDGFRβ LanthaScreen Assay; type: binding; conditions: read-out: PDGFR Lantha IC50
VEGFR2, unphosphorylated = VEGFR2, unphosphorylated (Homo sapiens (Human), UniProt P35968); assay: VEGFR ADP GLO Assay; type: biochemical
Description: as §1
Assay buffer stock contains 50 mM HEPES pH7.5, 10 mM MgCl2, 0.01% Brij-35, and 1 mM EGTA.
Unphosphorylated VEGFR2. […] Store at −80° C. in aliquots.
Sonicate 10 mg/ml Srctide solution for 10 minutes and then vacuum filter.
Freshly Prepared Solutions
2× kinase solution. Make a working solution of 10 nM unphosphorylated VEGFR2 in Assay buffer. Vacuum filter 2× kinase solution prior to running assay. Keep on ice until use.
2× substrate/ATP solution. Make a working solution of 2 mg/mL srctide and 2.4 mM ATP in Assay buffer. Keep on ice until use.
Step 1. Dispensing inhibitors/controls: Using Echo, dispense 10 nL/well compound serial dilutions in DMSO to columns 1-22 (in 384-well plates) or columns 1-44 (in 1536-well plates). Dilution series=11 pt, 3-fold dilutions. The top compound concentration in the source plate is 4 mM. The top compound concentration in the assay plate is 10 uM. Using Echo, dispense 10 nl/well DMSO to column 23 (in 384-well plates) or columns 45-47 (in 1536-well plates). […] These wells will serve as positive control wells.
Step 2. Pre-incubation of inhibitors with kinase: Add 2 μL/well 2× kinase solution. Centrifuge at 1000 rpm for 1 min. Incubate at room temperature for 30 min.
Step 3. Kinase cascade reaction: Add 2 μL/well 2× substrate/ATP solution to initiate kinase reactions. Centrifuge at 1000 rpm for 1 min. Incubate at room temperature for 180 min.
Final concentrations of components in the assay:
Step 4. Quench: Add 2 uL/well ADP Glo Reagent+0.05% CHAPS. Centrifuge at 1000 rpm for 1 min; Incubate at room temperature for one hour.
Step 5. Detection: Add 2 uL/well Kinase Detection Reagent+0.05% CHAPS. Centrifuge at 1000 rpm for 1 min; Incubate at room temperature for 1 hour; Read Luminescence on a plate reader.
as §2
IC50 values are determined from a 4-parameter fit, using the following equation: Y=Bottom+(Top−Bottom)/(1+10^(Log IC50-X)*Hill slope) where X=log10 of the compound concentration; top can be defined by PC; bottom defined by NC.

Sequence of VEGFR2, unphosphorylated (P35968 20-1356): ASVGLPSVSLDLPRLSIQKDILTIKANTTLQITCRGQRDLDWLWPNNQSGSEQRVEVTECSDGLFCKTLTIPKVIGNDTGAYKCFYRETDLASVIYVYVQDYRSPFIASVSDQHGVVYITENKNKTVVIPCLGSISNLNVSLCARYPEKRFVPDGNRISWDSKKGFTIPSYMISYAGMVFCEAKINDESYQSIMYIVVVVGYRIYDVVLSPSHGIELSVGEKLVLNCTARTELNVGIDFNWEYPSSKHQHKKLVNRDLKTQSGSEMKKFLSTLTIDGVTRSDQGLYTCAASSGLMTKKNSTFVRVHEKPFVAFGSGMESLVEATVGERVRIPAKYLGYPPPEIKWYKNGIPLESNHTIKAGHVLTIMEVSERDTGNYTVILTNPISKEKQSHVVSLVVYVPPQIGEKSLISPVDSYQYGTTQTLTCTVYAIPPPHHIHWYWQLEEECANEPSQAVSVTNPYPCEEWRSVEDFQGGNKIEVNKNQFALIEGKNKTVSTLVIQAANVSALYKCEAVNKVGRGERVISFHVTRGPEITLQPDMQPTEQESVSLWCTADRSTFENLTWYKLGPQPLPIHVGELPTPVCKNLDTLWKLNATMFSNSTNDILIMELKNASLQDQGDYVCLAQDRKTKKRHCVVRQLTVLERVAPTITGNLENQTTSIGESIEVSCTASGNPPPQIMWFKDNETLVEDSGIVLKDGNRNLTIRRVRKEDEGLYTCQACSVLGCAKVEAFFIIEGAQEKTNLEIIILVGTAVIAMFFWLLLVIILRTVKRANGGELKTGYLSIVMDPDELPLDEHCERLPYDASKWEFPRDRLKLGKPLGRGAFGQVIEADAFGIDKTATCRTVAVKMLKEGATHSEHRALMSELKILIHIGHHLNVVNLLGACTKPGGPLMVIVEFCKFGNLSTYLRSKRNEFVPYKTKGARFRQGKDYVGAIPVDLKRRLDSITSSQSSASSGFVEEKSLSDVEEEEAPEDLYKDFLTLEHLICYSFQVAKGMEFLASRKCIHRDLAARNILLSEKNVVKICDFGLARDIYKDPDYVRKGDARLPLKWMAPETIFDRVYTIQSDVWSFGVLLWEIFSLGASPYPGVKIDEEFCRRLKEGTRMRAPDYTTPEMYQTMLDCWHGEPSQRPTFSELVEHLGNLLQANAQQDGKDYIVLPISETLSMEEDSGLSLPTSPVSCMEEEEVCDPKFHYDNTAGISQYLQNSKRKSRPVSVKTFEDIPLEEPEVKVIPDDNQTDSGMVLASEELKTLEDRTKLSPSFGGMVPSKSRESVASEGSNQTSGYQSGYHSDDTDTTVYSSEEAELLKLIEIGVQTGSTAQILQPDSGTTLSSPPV
Sequence of Tb-labeled inactive PDGFRβ (P09619 33-1106): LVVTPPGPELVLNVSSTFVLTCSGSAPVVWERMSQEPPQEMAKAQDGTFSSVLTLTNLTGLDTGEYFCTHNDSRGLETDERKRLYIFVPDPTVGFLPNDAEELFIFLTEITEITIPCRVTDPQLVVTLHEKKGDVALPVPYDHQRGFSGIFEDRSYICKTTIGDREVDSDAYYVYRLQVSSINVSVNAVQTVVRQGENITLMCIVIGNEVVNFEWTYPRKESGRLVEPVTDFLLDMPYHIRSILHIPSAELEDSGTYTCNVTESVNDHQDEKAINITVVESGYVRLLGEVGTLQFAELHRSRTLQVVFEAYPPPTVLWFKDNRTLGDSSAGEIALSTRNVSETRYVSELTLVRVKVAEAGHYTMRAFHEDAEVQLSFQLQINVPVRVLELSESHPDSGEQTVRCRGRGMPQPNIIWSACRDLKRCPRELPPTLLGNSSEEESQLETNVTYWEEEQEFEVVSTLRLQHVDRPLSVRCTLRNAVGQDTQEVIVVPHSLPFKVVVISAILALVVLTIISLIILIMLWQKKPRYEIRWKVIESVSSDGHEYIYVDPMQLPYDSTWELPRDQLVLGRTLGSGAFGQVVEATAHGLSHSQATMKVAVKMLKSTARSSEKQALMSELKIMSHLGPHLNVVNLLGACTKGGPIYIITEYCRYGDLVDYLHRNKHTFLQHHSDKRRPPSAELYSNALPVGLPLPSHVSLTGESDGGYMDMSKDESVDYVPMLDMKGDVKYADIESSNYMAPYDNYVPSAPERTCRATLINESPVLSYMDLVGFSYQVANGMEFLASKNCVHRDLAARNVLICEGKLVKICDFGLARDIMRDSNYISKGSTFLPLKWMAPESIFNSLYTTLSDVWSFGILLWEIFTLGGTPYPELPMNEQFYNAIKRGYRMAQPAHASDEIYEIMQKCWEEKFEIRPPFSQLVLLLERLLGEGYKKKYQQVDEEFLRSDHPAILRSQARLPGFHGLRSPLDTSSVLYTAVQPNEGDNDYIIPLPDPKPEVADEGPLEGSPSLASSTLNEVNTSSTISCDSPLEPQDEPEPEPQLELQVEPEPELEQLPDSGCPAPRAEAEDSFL
Sequence of His6-TEV-PDGFRβ (557-1016) (P09619 557-1016): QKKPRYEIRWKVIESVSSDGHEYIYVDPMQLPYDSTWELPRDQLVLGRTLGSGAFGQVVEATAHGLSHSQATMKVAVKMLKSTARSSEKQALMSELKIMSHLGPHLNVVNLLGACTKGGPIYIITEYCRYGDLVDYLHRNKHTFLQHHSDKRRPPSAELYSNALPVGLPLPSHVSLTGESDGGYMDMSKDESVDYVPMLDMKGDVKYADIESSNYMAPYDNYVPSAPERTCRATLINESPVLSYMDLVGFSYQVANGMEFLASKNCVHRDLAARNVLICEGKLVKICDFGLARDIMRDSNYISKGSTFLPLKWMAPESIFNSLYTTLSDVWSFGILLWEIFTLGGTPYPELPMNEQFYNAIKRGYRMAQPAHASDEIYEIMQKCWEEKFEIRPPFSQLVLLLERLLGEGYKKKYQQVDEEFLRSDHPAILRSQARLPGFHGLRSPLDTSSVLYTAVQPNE

Cc1ncc(NC(=O)CCC2CCCN2C)cc1NC(=O)c1cnn2cc(-c3cnn(C)c3)sc12 (stereo not drawn) [Example 492, 2-(1-methyl-1H-pyrazol-4-yl)-N-(2-methyl-5-(3-(1-methylpyrrolidin-2-yl)propanamido)pyridin-3-yl)pyrazolo[5,1-b]thiazole-7-carboxamide]
pIC50 [1]: 9.15
pIC50 [2]: 7.82
pIC50 (VEGFR2, unphosphorylated): < 5.12

Cc1ccc(-c2cn3ncc(C(=O)Nc4cc(C(=O)NCCN5CCCC5(C)C)cnc4C)c3s2)cn1 [Example 136, N-(5-((2-(2,2-dimethylpyrrolidin-1-yl)ethyl)carbamoyl)-2-methylpyridin-3-yl)-2-(6-methylpyridin-3-yl)pyrazolo[5,1-b]thiazole-7-carboxamide]
pIC50 [1]: 8.85
pIC50 [2]: 9.00
pIC50 (VEGFR2, unphosphorylated): < 5.12

Cc1ncc(C(=O)NCCN2[C@H](C)CCC[C@@H]2C)cc1NC(=O)c1cnn2cc(-c3cnn(C)c3)sc12 [Example 164]
pIC50 [1]: 8.82
pIC50 [2]: 8.21
pIC50 (VEGFR2, unphosphorylated): < 5.12

Cc1ncc(C(=O)NCCN2CCCC2(C)C)cc1NC(=O)c1cnn2cc(-c3ccnc(N(C)C)c3)sc12 [Example 490, 2-(2-(dimethylamino)pyridin-4-yl)-N-(5-((2-(2,2-dimethylpyrrolidin-1-yl)ethyl)carbamoyl)-2-methylpyridin-3-yl)pyrazolo[5,1-b]thiazole-7-carboxamide]
pIC50 [1]: 9.52
pIC50 [2]: 8.64
pIC50 (VEGFR2, unphosphorylated): < 5.12

Cc1ncc(C(=O)NCCN2CCCC2(C)C)cc1NC(=O)c1cnn2cc(-c3cnn(C)n3)sc12 [Example 131, N-(5-((2-(2,2-dimethylpyrrolidin-1-yl)ethyl)carbamoyl)-2-methylpyridin-3-yl)-2-(2-methyl-2H-1,2,3-triazol-4-yl)pyrazolo[5,1-b]thiazole-7-carboxamide]
pIC50 [1]: 8.77
pIC50 [2]: 8.04
pIC50 (VEGFR2, unphosphorylated): < 5.12

Cc1ncc(C(=O)NCCN2CCCC2(C)C)cc1NC(=O)c1cnn2cc(-c3cccc(C(=O)O)c3)sc12 [Example 134, 3-(7-((5-((2-(2,2-dimethylpyrrolidin-1-yl)ethyl)carbamoyl)-2-methylpyridin-3-yl)carbamoyl)pyrazolo[5,1-b]thiazol-2-yl)benzoic acid]
pIC50 [1]: 8.54
pIC50 [2]: 7.86
pIC50 (VEGFR2, unphosphorylated): < 5.12

Cc1ncc(C(=O)NCCN2CCCC2(C)C)cc1NC(=O)c1cnn2cc(-c3ccc(=O)n(C)c3)sc12 [Example 138, N-(5-((2-(2,2-dimethylpyrrolidin-1-yl)ethyl)carbamoyl)-2-methylpyridin-3-yl)-2-(1-methyl-6-oxo-1,6-dihydropyridin-3-yl)pyrazolo[5,1-b]thiazole-7-carboxamide]
pIC50 [1]: 8.43
pIC50 [2]: 7.40
pIC50 (VEGFR2, unphosphorylated): < 5.12

Cc1ncc(C(=O)NCCN2CCCC2(C)C)cc1NC(=O)c1cnn2cc(-c3ccc(N)nc3)sc12 [Example 130, 2-(6-aminopyridin-3-yl)-N-(5-((2-(2,2-dimethylpyrrolidin-1-yl)ethyl)carbamoyl)-2-methylpyridin-3-yl)pyrazolo[5,1-b]thiazole-7-carboxamide]
pIC50 [1]: 9.30
pIC50 [2]: 8.37
pIC50 (VEGFR2, unphosphorylated): < 5.12

Cc1ncc(C(=O)NCCN2CCCC2(C)C)cc1NC(=O)c1cnn2cc(-c3cccnc3)sc12 [Example 135, N-(5-((2-(2,2-dimethylpyrrolidin-1-yl)ethyl)carbamoyl)-2-methylpyridin-3-yl)-2-(pyridin-3-yl)pyrazolo[5,1-b]thiazole-7-carboxamide]
pIC50 [1]: 8.89
pIC50 [2]: 7.97
pIC50 (VEGFR2, unphosphorylated): < 5.12

Cc1ncc(C(=O)NCCN2CC(C)(C)C2)cc1NC(=O)c1cnn2cc(-c3cnn4c3COCC4)sc12 [Example 489, 2-(6,7-dihydro-4H-pyrazolo[5,1-c][1,4]oxazin-3-yl)-N-(5-((2-(3,3-dimethylazetidin-1-yl)ethyl)carbamoyl)-2-methylpyridin-3-yl)pyrazolo[5,1-b]thiazole-7-carboxamide]
pIC50 [1]: 9.30
pIC50 [2]: 8.26
pIC50 (VEGFR2, unphosphorylated): < 5.12

Cc1ncc(C(=O)NCCN2CCCC2(C)C)cc1NC(=O)c1cnn2cc(-c3ccc(C(=O)O)cc3)sc12 [Example 133, 4-(7-((5-((2-(2,2-dimethylpyrrolidin-1-yl)ethyl)carbamoyl)-2-methylpyridin-3-yl)carbamoyl)pyrazolo[5,1-b]thiazol-2-yl)benzoic acid]
pIC50 [1]: 8.82
pIC50 [2]: 8.20
pIC50 (VEGFR2, unphosphorylated): < 5.12

Cc1ncc(C(=O)NCCN2CCCC2(C)C)cc1NC(=O)c1cnn2cc(-c3ccc(=O)[nH]c3)sc12 [Example 137, N-(5-((2-(2,2-dimethylpyrrolidin-1-yl)ethyl)carbamoyl)-2-methylpyridin-3-yl)-2-(6-oxo-1,6-dihydropyridin-3-yl)pyrazolo[5,1-b]thiazole-7-carboxamide]
pIC50 [1]: 8.66
pIC50 [2]: 7.61
pIC50 (VEGFR2, unphosphorylated): < 5.60

Cc1ncc(C(=O)NCCNC2CCC2)cc1NC(=O)c1cnn2cc(-c3cnn4c3CCC4)sc12 [Example 491, N-(5-((2-(cyclobutylamino)ethyl)carbamoyl)-2-methylpyridin-3-yl)-2-(5,6-dihydro-4H-pyrrolo[1,2-b]pyrazol-3-yl)pyrazolo[5,1-b]thiazole-7-carboxamide]
pIC50 [1]: 9.52
pIC50 [2]: 8.31
pIC50 (VEGFR2, unphosphorylated): < 5.12
